The record followed here is ChEMBL document CHEMBL1159014, “Isolation of potential cancer chemopreventive agents from Eriodictyon californicum” (1992).

Assay [1] is described as follows: Chemopreventive activity in Syrian hamster embryo cells assessed as inhibition of metabolism of [3H]benzo(a)pyrene to water-soluble metabolites after 24 hrs at 20 ug/ml relative to control. In kind it is functional. The settings on record: Mesocricetus auratus, read-out: INH.
Assay [2] can be described thus: Chemopreventive activity in Syrian hamster embryo cells assessed as inhibition of metabolism of [3H]benzo(a)pyrene to water-soluble metabolites after 24 hrs at 10 ug/ml relative to control. The settings on record: Mesocricetus auratus, read-out: INH. In kind it is functional.
Assay [3] in a line: Chemopreventive activity in Syrian hamster embryo cells assessed as inhibition of metabolism of [3H]benzo(a)pyrene to water-soluble metabolites after 24 hrs at 5 ug/ml relative to control. In kind it is functional. Conditions: Mesocricetus auratus, read-out: INH.
The next assay is filed under the species Mesocricetus auratus. Description: Chemopreventive activity in Syrian hamster embryo cells assessed as inhibition of [3H]benzo(a)pyrene-DNA binding at 10 ug/ml by [35S]phosphorothote post-labeling-HPLC. It is filed as functional.
The nature of assay [4]: Chemopreventive activity in Syrian hamster embryo cells assessed as pmol of [3H]benzo(a)pyrene binding per mg of DNA at 10 ug/ml by [35S]phosphorothote post-labeling-HPLC. In kind it is functional, Mesocricetus auratus.
The nature of assay [5]: Chemopreventive activity in Syrian hamster embryo cells assessed as pmol of (+)-anti-benzo(a)pyrene-7,8-diol-9,10-epoxide -dGuo adduct per mg of DNA at 10 ug/ml by [35S]phosphorothote post-labeling-HPLC. It is filed as functional, Mesocricetus auratus.

`COc1cc(C2CC(=O)c3c(cc(O)c(OC)c3O)O2)ccc1O` (stereo unspecified): the inhibition at 20 µg/mL in assay [1] was 32%. Further, in assay [2], the inhibition at 10 µg/mL turned out to be 19%. Moreover, the inhibition at 5 µg/mL in assay [3] turned out to be 9%.

Consider `COc1cc([C@@H]2CC(=O)c3c(O)cc(O)cc3O2)ccc1OC(=O)C(C)C`, for which the inhibition at 20 µg/mL in assay [1] was 52%.

On to `COc1cc2c(c(O)c1OC)C(=O)CC(c1ccc(O)cc1)O2` (stereo unspecified), for which, in assay [1], the inhibition at 20 µg/mL was determined as 36%.

Regarding `O=c1cc(-c2ccccc2)oc2cc(O)cc(O)c12` [CHRYSIN], the inhibition at 20 µg/mL in assay [1] is 86%. For the same molecule, the inhibition at 10 µg/mL in assay [2] is 44%. In addition, the inhibition at 5 µg/mL in assay [3] amounted to 14%.

Take `COc1cc(-c2cc(=O)c3c(O)cc(O)cc3o2)ccc1O` [CHRYSOERIOL]: the inhibition at 20 µg/mL in assay [1] was 96%. For the same molecule, the inhibition at 10 µg/mL in assay [2] was found to be 85%. Further, the inhibition at 5 µg/mL in assay [3] worked out at 60%. The inhibition in the assay filed under Mesocricetus auratus came out at 32%. Besides, the Activity in assay [4] was 44.9 pmol; in assay [5], 22.5 pmol.

In the case of `COc1cc2oc(-c3ccc(O)cc3)cc(=O)c2c(O)c1OC` [CIRSIMARITIN], the inhibition at 20 µg/mL in assay [1] came out at 92%. In assay [2], the inhibition at 10 µg/mL was determined as 85%. Besides, the inhibition at 5 µg/mL in assay [3] was found to be 69%. Also, the inhibition in the assay filed under Mesocricetus auratus came out at 71%. For the same molecule, the Activity in assay [4] was 19.4 pmol; in assay [5] it was 11.5 pmol.

Regarding `O=C1C[C@@H](c2ccc(O)c(O)c2)Oc2cc(O)cc(O)c21` [ERIODICTYOL], the inhibition at 20 µg/mL in assay [1] came out at 55%. Moreover, the inhibition at 10 µg/mL in assay [2] came out at 40%. Also, the inhibition at 5 µg/mL in assay [3] amounted to 16%.

For the molecule `COc1c(O)cc2oc(-c3ccc(O)cc3)cc(=O)c2c1O` [HISPIDULIN], the inhibition at 20 µg/mL in assay [1] was 92%. Besides, the inhibition at 10 µg/mL in assay [2] was 75%. In addition, the inhibition at 5 µg/mL in assay [3] stood at 18%.

For `COc1cc([C@@H]2CC(=O)c3c(O)cc(O)cc3O2)ccc1O` [HOMOERIODICTYOL], the inhibition at 20 µg/mL in assay [1] is 36%.

Regarding `O=C1C[C@@H](c2ccccc2)Oc2cc(O)cc(O)c21` [PINOCEMBRIN], in assay [1], the inhibition at 20 µg/mL was found to be 66%. In addition, the inhibition at 10 µg/mL in assay [2] came out at 29%. In assay [3], the inhibition at 5 µg/mL came to 8%.

As to `COc1cc(O)c2c(c1)O[C@H](c1ccc(O)cc1)CC2=O` [SAKURANETIN], the inhibition at 20 µg/mL in assay [1] stood at 52%.
